Measured values reported in patent publication US10829506B2, “Amino- or ammonium-containing sulfonic acid, phosphonic acid and carboxylic acid derivatives and their medical use” (GRI Bio, Inc., priority 2011, dated 2020).
Several values for one entry are separate records, joined by “and”; a condition that tells them apart may be missing. Equal entries are not always repeated.

Legend:
BALB/c-mice = experiment: Allergic contact dermatitis model (TDI), mouse ear swelling test; type: in vivo
Description: The anti-inflammatory and anti-allergic effects of compound 1a were assessed in a mouse model of allergic contact dermatitis, a response driven primarily by T helper type 2 (Th2) cells. […] In this model, an allergic dermatitis response is obtained by sensitizing mice to TDI and subsequently challenging them with antigen by topical administration onto the ears. A quantitative assessment of anti-inflammatory and anti-allergic effects of topically or orally administered test compounds is possible by measuring the resulting ear swelling.
Female BALB/c-mice were obtained from Charles River (Sulzfeld, Germany) at age 8 weeks. All animals were housed in groups of eight per cage at 22° C. with a 12 h light/dark-cycle. Water and a standard diet (Aitromin, Lage/Lippe, Germany) were available ad libitum. All animals were acclimatized for one week before experimental procedures were commenced.
Experimental procedures for BALB/c mice housing, TDI sensitization and challenge, and measurement of ear thickness were performed as previously described (Baurner et al., J Pharm Pharmacol. 55:1107-1114 (2003)) with the following modifications. For active sensitization, 100 μL of 5% (w/v) TDI was administered to the shaved and stripped abdominal epidermis on day one, and for the next three consecutive days, 50 μL of 5% (w/v) TDI was applied. The allergic reaction was boosted 21 days later by application of 50 μL of 0.5% (w/v) TDI. For the examination of test compound effects, the left ears were used for the TDI challenge (20 μL of 0.5% in acetone) and ear thickness measured 3 h before and 24 h after challenge.
Group size was n=7 mice unless otherwise stated. Test compounds were freshly prepared before administration.
Administration time: to determine optimal time for administration treatment groups were treated orally by gavage with 100 mg/kg of compound 1a (suspended in phosphate-buffered saline (PBS), 10 mL/kg) 4 or 16 h before topical TDI challenge. Vehicle treated mice received PBS (10 mL/kg) orally, 4 h before challenge.
Dose-response: two groups of mice were treated orally with compound 1a at 20 mg/kg or 100 mg/kg suspended in PBS, 4 h before topical TDI challenge. Vehicle treated mice received PBS orally 4 h before challenge.
Compound 1a was administered to two groups of mice topically in 20 μl of a 2% or 6% solution in acetone/water (1:1). The solution was applied, 2 h before topical TDI challenge by administration of 10 μl onto each of the inner and outer surfaces of the left ears. A vehicle group (n=7) was treated with acetone/water (1:1).
Mean and standard error of the mean (SEM) were calculated from individual ear edema values. […]

phospho-Akt Ser473 = experiment: Inhibition of Akt phosphorylation on Ser473 in IgE sensitized, antigen stimulated RBL-2H3 cells; type: cell-based, rat; details: normalized to total Akt, IgE and antigen for 15 min
Text: The mast cell degranulation assay using the RBL-2H3 cell line (see Example 27) was also used to determine the status of the PI3K/Akt axis. Activation of PI3K leads to production of PIP3 on the cytosolic side of the lipid bilayer. Akt is recruited to the PIP3 domain and subsequently activated by phosphorylation on residues Ser473 and Thr308. (Franke et al., Cell 81:727-736, (1995)). Once recruited to the membrane, it is phosphorylated and activated by other kinases (Hemmings, Science 275:628-630 (1997); Hemmings. Science 276:534 (1997); Downward, Science 279:673-674 (1998); Alessi et al., EMBO J. 15:6541-6551 (1996)). Western blotting of the phosphorylated Ser473 residue on Akt (phospho-Akt Ser473) is widely used to assess the level of activation of the PI3K/Akt axis.
All buffers and solutions used for the phosphor-Akt Ser473 assay were from Meso Scale Discovery. Tris Lysis Buffer consisted of 150 mM NaCl, 20 mM Tris, pH 7.5, 1 mM EDTA, 1 mM EGTA and 1% Triton-X-100. Complete Tris Lysis Buffer was prepared prior to use by addition of protease inhibitor, phosphatase inhibitors and PMSF. The 10x Tris Wash Buffer consisted of 500 mM Tris, pH 7.5, 1.5 M NaCl and 0.2% Tween-20. Blocker A was made up of bovine serum albumin in Tris Wash Buffer. Read Buffer T was used according to manufacturer's instructions. The Whole Cell Lysate Kits used were phospho-Akt Ser473 (K11100D. Lot K0011749) and total ERK½ (K11107D, Lot K0011698) as a loading control.
Protein assay: protein concentration was determined using the BCA (bicinchoninic acid) Protein Assay kit according to the manufacturer's instructions, Briefly, duplicate 10 μl samples of bovine serum albumin (BSA) standards, blank and lysates were incubated in a 96-well plate with 0.2 ml working reagent for 30 min at 37° C. Plates cooled to room temperature for 5 min and absorbance at 562 nm measured in a multi-mode plate reader. Protein concentrations were calculated using FlexStation 3 software (SoftMax Pro version 5.3). Protein concentration of lysates was determined from a standard curve (BSA) using a linear curve fit.
Phosphoprotein assay: protein phosphorylation was determined using the MULTI-SPOT® Assay System (Meso Scale Discovery), providing simultaneous detection of phosphorylated and total proteins. Briefly, capture antibodies against phosphorylated and total protein are patterned on distinct spots in the same well of 96-well plates. Sandwich immunoassay and electrochemiluminescence detection technology are combined to measure intensity of the emitted light from phosphorylated and total protein spots. For analysis of phosphor-Akt Ser473 was performed according to the manufacturer's instructions. The optimal amount of protein was determined at 5 μg lysate per well for ERK½ and 10 μg/well for phospho-Akt Ser473. Plates were blocked with 25 μl/well Blocker A for 1 h at room temperature with gentle agitation. During this time, the lysates were thawed and diluted to the desired protein concentration in complete Tris Lysis Buffer. Plates were washed four times in Tris Wash Buffer and 25 μl lysate per well added. Plates were incubated for 1-3 h at room temperature with agitation according to the manufacturer's recommendations. Plates were washed four times with Tris Wash Buffer, followed by addition of 25 μl/well of the respective detection antibody and incubation for 1 h at room temperature, with agitation. After a final four washes with Tris Wash Buffer 150 μl/well, Read Buffer T was added, and plates read on a SECTOR Imager 6000 plate reader.
The mean background signal from each plate was subtracted from averaged raw data. The amount of total protein phosphorylaled was expressed as % phosphoprotein according to the manufacturer's (Meso Scale Discovery) Instructions.
Levels of phospho-Akt Ser473 were determined in IgE sensitized and antigen stimulated cells after treatment without (positive control) or with 1, 5 and 25 μM test compound and normalized to levels of total Akt.

## CCCCCCCCCCCCCC[N+](C)(C)CCCS(=O)(=O)[O-] [Compound 1a, 3-(N,N-Dimethylmyristylammonio)-Propanesulfonate]
BALB/c-mice; oral 100 mg/kg, 4 h before TDI challenge
  Inhibition of mouse ear swelling (allergic contact dermatitis): 52% and 51.7* %
BALB/c-mice; oral 100 mg/kg, 16 h before TDI challenge
  Inhibition of mouse ear swelling (allergic contact dermatitis): 32.2
BALB/c-mice; topical 2% solution, 2 h before TDI challenge
  Inhibition of mouse ear swelling (allergic contact dermatitis): 72%
BALB/c-mice; topical 6% solution, 2 h before TDI challenge
  Inhibition of mouse ear swelling (allergic contact dermatitis): 86%
phospho-Akt Ser473; 1 μM
  Level of phospho-Akt Ser473: 103.1 ± 17.4 % positive control
phospho-Akt Ser473; 5 μM
  Level of phospho-Akt Ser473: 57.0 ± 15.2 % positive control
phospho-Akt Ser473; 25 μM
  Level of phospho-Akt Ser473: 13.2 ± 4.2 % positive control
